Results as given in paper doi:10.1101/614586v1 (biorxiv, 2019).

Experiments:
[1] = biological target: T1, human RAD54 (Homo sapiens, UniProt Q92698); test: biochemical; settings: read-out: % inh.
T1 sequence (Q92698 1-747): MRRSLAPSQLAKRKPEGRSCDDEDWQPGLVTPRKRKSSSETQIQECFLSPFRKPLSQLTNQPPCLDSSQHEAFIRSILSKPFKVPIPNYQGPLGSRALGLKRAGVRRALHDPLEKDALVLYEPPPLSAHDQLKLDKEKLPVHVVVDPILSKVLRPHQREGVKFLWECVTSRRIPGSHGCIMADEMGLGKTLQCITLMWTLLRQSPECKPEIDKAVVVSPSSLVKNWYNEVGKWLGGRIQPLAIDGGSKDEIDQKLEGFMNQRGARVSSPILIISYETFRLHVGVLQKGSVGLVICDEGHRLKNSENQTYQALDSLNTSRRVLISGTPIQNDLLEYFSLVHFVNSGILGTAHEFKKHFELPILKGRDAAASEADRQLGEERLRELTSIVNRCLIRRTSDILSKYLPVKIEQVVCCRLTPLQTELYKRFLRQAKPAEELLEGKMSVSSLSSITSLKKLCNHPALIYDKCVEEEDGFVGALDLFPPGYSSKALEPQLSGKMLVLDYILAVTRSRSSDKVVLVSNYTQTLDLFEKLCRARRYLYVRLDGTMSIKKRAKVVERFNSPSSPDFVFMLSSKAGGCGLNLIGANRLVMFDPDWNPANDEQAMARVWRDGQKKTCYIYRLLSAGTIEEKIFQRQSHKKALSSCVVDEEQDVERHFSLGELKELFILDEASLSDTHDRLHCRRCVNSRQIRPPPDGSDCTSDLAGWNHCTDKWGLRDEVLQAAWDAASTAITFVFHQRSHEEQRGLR

[2] = biological target: T1, human RAD54; test: malachite green phosphate ATPase assay; format: biochemical
[3] = biological target: H. sapiens VCP/p97 (Homo sapiens, UniProt P55072); test: malachite green phosphate ATPase assay; format: biochemical
Sequence of H. sapiens VCP/p97 (P55072 2-806): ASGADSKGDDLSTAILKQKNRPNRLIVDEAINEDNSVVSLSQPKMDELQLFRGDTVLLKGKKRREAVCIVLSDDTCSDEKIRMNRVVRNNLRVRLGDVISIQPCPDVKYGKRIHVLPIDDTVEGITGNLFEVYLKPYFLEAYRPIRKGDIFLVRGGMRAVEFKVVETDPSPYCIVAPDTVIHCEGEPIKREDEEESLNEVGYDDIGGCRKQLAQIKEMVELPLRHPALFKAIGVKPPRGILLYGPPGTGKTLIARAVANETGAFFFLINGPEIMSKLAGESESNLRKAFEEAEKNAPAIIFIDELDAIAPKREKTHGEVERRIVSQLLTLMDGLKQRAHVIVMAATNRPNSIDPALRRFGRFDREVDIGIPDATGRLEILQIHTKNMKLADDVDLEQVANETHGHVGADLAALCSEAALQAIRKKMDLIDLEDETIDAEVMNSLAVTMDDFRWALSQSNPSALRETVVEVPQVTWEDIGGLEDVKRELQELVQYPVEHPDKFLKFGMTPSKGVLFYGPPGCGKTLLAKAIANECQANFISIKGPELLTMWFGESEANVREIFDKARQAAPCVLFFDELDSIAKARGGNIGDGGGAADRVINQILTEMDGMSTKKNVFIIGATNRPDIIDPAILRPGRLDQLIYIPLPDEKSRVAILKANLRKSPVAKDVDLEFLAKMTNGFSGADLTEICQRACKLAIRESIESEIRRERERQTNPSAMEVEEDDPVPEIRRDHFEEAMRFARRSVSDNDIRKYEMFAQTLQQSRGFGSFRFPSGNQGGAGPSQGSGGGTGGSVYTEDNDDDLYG

[4] = biological target: T2, H. sapiens HLTF (Homo sapiens, UniProt Q14527); test: malachite green phosphate ATPase assay; format: biochemical
T2 sequence (Q14527 1-1009): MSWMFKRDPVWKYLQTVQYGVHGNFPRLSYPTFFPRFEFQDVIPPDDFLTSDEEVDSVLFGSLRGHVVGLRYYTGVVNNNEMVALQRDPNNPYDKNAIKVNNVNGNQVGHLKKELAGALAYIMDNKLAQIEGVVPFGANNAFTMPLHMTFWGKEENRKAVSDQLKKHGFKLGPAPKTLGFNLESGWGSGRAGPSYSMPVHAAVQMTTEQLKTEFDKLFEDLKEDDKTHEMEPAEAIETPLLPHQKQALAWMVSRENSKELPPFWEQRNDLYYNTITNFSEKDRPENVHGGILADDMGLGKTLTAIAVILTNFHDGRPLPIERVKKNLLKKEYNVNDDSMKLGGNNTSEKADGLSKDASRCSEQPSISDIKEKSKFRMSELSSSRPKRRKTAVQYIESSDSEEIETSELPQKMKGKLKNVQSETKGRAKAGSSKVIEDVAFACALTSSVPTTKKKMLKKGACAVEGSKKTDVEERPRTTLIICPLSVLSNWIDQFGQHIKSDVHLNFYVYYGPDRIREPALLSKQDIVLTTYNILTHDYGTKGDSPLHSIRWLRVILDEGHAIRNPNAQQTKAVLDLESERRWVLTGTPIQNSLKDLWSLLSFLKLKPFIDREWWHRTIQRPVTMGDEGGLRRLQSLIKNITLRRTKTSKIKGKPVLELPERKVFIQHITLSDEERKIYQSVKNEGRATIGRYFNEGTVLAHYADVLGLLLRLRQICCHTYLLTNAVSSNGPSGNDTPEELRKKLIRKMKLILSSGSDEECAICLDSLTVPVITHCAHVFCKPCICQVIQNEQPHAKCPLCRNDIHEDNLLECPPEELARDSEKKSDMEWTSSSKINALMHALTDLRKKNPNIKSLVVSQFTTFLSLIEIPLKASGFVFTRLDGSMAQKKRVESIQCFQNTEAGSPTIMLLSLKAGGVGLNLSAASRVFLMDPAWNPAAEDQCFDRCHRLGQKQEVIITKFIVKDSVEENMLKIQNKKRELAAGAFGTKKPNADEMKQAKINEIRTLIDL

[5] = biological target: T3, H. sapiens SMARCAL1 (Homo sapiens, UniProt Q9NZC9); test: malachite green phosphate ATPase assay; format: biochemical
T3 sequence (Q9NZC9 2-954): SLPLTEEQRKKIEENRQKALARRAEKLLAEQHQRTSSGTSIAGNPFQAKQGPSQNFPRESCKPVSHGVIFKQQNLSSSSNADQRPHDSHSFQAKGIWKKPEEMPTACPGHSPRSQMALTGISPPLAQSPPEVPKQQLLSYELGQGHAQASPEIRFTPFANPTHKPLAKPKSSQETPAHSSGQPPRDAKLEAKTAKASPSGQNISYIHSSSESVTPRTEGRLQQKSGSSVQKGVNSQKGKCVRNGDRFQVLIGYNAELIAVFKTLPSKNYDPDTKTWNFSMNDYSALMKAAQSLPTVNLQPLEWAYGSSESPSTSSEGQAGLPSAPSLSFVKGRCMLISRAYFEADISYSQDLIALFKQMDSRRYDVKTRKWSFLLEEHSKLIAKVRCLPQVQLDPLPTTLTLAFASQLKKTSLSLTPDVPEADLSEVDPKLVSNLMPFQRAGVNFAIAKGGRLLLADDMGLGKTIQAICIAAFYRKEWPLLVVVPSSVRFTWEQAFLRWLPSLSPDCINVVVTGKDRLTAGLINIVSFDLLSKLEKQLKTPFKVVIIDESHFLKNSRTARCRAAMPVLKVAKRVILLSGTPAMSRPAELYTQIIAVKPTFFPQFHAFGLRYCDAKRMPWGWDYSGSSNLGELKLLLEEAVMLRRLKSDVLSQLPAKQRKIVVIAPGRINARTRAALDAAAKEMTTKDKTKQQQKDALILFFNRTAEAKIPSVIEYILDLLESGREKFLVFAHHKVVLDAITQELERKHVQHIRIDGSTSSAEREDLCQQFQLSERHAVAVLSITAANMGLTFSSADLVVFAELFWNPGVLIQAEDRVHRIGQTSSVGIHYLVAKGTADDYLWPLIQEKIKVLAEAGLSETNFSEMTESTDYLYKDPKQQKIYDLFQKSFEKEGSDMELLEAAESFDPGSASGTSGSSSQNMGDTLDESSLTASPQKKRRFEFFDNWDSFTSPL

[6] = biological target: T4, S. cerevisiae Rad54 (Saccharomyces cerevisiae, UniProt P32863); test: malachite green phosphate ATPase assay; format: biochemical
T4 sequence (P32863 1-898): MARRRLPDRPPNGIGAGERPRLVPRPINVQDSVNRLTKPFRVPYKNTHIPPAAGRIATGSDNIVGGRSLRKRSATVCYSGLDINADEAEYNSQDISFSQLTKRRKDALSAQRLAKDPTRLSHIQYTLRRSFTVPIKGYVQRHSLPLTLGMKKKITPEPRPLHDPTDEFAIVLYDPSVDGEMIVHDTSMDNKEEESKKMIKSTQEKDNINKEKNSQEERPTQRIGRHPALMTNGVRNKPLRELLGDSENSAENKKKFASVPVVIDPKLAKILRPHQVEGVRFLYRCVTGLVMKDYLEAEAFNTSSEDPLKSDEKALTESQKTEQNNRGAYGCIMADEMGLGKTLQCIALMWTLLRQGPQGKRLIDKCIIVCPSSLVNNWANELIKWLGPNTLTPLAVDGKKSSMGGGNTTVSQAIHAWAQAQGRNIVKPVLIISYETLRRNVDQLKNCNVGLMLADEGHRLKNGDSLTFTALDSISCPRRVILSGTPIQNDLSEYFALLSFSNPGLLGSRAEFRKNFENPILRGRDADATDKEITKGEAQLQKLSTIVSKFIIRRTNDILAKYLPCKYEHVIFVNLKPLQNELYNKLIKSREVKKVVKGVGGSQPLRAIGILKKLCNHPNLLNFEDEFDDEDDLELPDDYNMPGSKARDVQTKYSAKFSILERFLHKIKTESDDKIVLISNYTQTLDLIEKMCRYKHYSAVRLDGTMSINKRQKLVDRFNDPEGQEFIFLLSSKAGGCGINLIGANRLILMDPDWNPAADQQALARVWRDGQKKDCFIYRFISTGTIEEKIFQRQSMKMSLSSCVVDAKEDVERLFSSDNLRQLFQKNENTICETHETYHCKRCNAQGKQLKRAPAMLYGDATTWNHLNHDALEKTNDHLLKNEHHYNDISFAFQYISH

[7] = biological target: T5, S. cerevisiae Rdh54/Tid1 (Saccharomyces cerevisiae, UniProt P38086); test: malachite green phosphate ATPase assay; format: biochemical
T5 sequence (P38086 35-958 limits assumed): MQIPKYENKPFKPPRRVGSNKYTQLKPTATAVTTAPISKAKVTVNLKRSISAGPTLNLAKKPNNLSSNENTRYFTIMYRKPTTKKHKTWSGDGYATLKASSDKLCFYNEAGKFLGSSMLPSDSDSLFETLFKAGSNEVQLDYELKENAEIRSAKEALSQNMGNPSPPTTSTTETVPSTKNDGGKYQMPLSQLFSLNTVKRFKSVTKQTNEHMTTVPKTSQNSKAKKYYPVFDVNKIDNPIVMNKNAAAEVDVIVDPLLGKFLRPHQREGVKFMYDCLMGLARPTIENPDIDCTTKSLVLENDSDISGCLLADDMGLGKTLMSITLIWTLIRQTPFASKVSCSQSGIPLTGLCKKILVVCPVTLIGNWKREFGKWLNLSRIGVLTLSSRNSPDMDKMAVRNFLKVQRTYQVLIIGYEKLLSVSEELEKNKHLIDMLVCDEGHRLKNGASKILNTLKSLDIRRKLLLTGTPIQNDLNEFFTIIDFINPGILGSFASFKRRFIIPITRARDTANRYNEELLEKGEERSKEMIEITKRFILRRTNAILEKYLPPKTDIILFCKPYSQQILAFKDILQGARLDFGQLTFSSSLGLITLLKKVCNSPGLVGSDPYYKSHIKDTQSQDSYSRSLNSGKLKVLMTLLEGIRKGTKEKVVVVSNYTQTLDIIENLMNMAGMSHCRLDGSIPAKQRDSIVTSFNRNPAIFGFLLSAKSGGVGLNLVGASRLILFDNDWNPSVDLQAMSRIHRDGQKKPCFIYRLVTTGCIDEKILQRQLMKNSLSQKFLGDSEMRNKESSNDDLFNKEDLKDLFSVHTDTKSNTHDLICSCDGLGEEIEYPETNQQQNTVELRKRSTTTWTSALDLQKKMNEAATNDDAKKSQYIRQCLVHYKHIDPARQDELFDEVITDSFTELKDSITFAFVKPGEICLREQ

[8] = biological target: T6, E. coli RecA (Escherichia coli, UniProt P0A7G6); test: malachite green phosphate ATPase assay; format: biochemical
T6 sequence (P0A7G6 2-353): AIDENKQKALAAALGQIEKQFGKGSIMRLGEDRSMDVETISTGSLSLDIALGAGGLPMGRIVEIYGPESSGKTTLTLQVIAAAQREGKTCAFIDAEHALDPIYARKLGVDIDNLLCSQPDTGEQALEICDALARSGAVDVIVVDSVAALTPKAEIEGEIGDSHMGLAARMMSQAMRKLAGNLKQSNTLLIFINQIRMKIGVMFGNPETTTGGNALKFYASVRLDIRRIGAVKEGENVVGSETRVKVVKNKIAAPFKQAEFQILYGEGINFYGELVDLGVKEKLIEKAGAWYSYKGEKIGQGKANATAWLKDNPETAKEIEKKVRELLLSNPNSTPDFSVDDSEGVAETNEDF

[9] = biological target: T1, human RAD54; test: biochemical
[10] = biological target: T1, human RAD54; test: biochemical; remark: listed apart in the source

SMILES | inhibition at 10 µM [1] [%] | IC50 [2] [µM] | also measured
CCCc1nc2c(=O)n(C)c(=O)nc-2n(C)n1 [54i^P-1b] | 61 | – | –
CC1(C)Cc2c(ccc3ccccc23)C(CCN2CCCCC2)=N1 [54i-2] | 18 | 16 ± 3 | –
CC1(C)c2cc(Br)ccc2N(CCc2nnn[nH]2)c2ccc(Br)cc21 [tricyc-3] | – | 7.65 ± 1.06 | –
Cc1ccc(C)n1-c1ccc(C(=O)O)c(O)c1 [54i^P-2a] | 50 | – | –
CN(C)CCCNCC(O)Cn1c2ccc(Cl)cc2c2cc(Cl)ccc21 (stereo not drawn) [54i-1] | 68 | 5 ± 1.05 | IC50 [3]: > 500 µM; IC50 [4]: 377 ± 195 µM; IC50 [5]: 5.7 ± 0.6 µM; IC50 [6]: 3.8 ± 1.8 µM; IC50 [7]: 43.2 ± 2.9 µM; IC50 [8]: 0.79 ± 0.05 µM
CC1(C)c2cc(Cl)ccc2N(CCc2nnn[nH]2)c2ccc(Cl)cc21 [tricyc-2] | – | 3.07 ± 0.7 | –
CS(=O)(=O)C1=NSC2=NC(=O)C(=Cc3ccc(SCc4ccc(Cl)cc4)o3)C(=N)N21 [54i^P-3] | 27 | – | –
NC=O [54i^P-4] | 36 | – | –
CCn1nc(-c2ccc(C)cc2)nc2c(=O)n(C)c(=O)nc1-2 [54i^P-1d] | 49 | – | –
Cc1ccc(C)n1CCN1CCNCC1 [54h^o-1] | – | – | IC50 [9]: > 60 µM
Cc1ccc(C)n1-c1ccc(SCC(=O)O)cc1 [54i^P-2b] | 70 | – | –
Cc1nc2c(=O)n(C)c(=O)nc-2n(C)n1 [54i^P-1a] | 44 | – | –
CCn1nc(-c2ccc(C(F)F)cc2)nc2c(=O)n(C)c(=O)nc1-2 [54i^P-1e] | 79 | – | –
CCn1nc(-c2ccccc2C)nc2c(=O)n(C)c(=O)nc1-2 [54i^P-1c] | 70 | – | –
CC1(C)c2ccccc2N(CCc2nnn[nH]2)c2ccccc21 [tricyc-1] | – | > 130 | IC50 [10]: 129 ± 19.7 µM
